The numbers were not newly measured in article PMC9817006 (Journal of psychopharmacology (Oxford, England), 2022), which cites them from elsewhere.

The conditions of data set [1]: systemic administration; ref Rueter et al., 2006; cited from earlier work.
In a further data set the test system is C57BL/6J mice. Particulars: low and high doses, ref Akinola et al., 2019; cited from earlier work.
A further data set concerns rats. As to conditions: ref Freitas et al., 2016; cited from earlier work.

For the compound `c1cncc(OC[C@@H]2CCN2)c1` [A-85380], the “Antinociception and anti-allodynic activity (in words)” value in data set [1] was “showing efficacy in multiple in vivo assays of antinociception, and anti-allodynic activity after systemic administration”.

As to `CN1CCC[C@H]1c1cccnc1` [nicotine], the “Locomotor sensitization (in words)” value in the data set with C57BL/6J mice was “lack of locomotor sensitization”.

As for dihydro-ß-erythroidine [DHßE], the “Effect on 5IA-facilitated ICSS (in words)” value in the data set on rats is reported as “blocked”.
